# Measurements from BindingDB's records for doi:10.1016/j.bmcl.2016.10.061 (Ocean University of China, 2016).
# Target: Proto-oncogene tyrosine-protein kinase receptor Ret (Homo sapiens) (UniProt P07949)
# Experiment: Inhibition of CCDC6/RET (unknown origin) expressed in mouse BaF3 cells assessed as reduction in cell proliferation after 72 hrs by MTT assay
# Chain of Proto-oncogene tyrosine-protein kinase receptor Ret (Homo sapiens) (P07949 whole entry, looked up): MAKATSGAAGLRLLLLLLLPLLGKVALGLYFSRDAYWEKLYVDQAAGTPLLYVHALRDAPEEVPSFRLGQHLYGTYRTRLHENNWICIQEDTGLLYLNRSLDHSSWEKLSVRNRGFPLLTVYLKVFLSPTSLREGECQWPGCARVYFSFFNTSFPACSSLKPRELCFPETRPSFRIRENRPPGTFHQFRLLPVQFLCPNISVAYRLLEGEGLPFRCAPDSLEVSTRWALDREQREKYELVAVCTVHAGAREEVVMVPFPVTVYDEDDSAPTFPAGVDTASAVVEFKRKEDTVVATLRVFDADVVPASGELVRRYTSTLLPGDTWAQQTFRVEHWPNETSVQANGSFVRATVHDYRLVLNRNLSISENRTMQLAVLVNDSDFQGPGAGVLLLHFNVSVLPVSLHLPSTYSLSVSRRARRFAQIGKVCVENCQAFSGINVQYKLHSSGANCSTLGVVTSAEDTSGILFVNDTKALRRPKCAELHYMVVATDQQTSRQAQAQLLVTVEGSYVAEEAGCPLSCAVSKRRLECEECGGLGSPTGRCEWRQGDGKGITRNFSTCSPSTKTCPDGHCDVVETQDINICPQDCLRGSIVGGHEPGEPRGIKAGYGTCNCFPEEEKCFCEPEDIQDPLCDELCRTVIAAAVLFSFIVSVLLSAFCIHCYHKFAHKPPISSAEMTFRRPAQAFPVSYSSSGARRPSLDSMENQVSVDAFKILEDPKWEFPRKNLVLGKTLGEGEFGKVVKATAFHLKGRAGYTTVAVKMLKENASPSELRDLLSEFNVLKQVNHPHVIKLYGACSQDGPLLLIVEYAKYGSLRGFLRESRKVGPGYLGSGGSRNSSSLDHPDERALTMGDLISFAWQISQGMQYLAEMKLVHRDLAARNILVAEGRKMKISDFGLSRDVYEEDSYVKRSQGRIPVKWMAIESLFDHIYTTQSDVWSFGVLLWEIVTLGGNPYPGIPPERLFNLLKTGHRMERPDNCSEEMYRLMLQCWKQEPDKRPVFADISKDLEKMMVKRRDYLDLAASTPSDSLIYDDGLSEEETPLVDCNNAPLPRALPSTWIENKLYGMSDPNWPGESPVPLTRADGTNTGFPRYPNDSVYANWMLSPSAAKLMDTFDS
compound,measurement,value
CN1CCN(Cc2ccc(NC(=O)c3ccc(Cl)c(-c4noc(-c5cncc(-c6cnn(C)c6)c5)n4)c3)cc2C(F)(F)F)CC1,IC50,407 nM
